Laboratory results: publication PMC5784132, “Investigation of 20S-hydroxyvitamin D3 analogs and their 1α-OH derivatives as potent vitamin D receptor agonists with anti-inflammatory activities” (Scientific Reports, 2018)

Columns and labels:
CYP24A1 gene expression = assay: RT-PCR analysis of CYP24A1 expression in HaCaT cells; format: cell-based; details: Homo sapiens, 100 nM, 24 h treatment, read-out: relative mRNA level for CYP24A1 versus vehicle control
Description: Figure 7 20S(OH)D3 analogs upregulate the expression of CYP24A1 encoding the vitamin D catabolic enzyme, CYP24A1, with varying efficiencies. […] The mRNA was isolated and the RT-PCR was performed using specific primers for the CYP24A1 gene (see Methods). Data are presented as mean ± SE (n = 3). *p < 0.05, **p < 0.01 and ***p < 0.001 compared with the control.
HaCaT cells were purchased from Thermo Fisher Scientific (Waltham, MA, USA) and were cultured as for the VDRE reporter assay. The RNA from HaCaT keratinocytes treated with secosteroids or from DMSO controls was isolated using the Absolutely RNA Miniprep Kit (Stratagene, La Jolla, CA, USA). Reverse transcription (100 ng RNA/reaction) was performed with the Transcriptor First Strand cDNA Synthesis Kit (Roche Inc., Mannheim, Germany). Real-time PCR was performed using cDNA diluted 10-fold in sterile water and a SYBR Green PCR Master Mix. The primers for both forward and reverse strands for CYP24A1 were designed based on the mouse and rat sequences using Primer Quest software ([…], San Jose, CA, USA). Reactions (in triplicate) were performed at 50 °C for 2 min, 95 °C for 10 min and then 40 cycles of 95 °C for 15 s, 60 °C for 30 s and 72 °C for 30 s. Data were collected and analyzed on a Roche Light Cycler 480. The amount of the final amplified product for each gene was compared and normalized to the amount of β-actin product as a housekeeping gene using a comparative Ct method.

rat CYP24A1 = target: T1, rat CYP24A1 (Rattus norvegicus, UniProt Q09128); assay: Kinetics of metabolism of analogs in phospholipid vesicles by rat CYP24A1; format: in vitro ADME; details: for Km: rat CYP24A1 0.14 µM, phospholipid vesicles, 1 min incubation, ± SE from curve fit
T1 construct: made in house; host or cells: E. coli
T1 sequence (Q09128 36-514): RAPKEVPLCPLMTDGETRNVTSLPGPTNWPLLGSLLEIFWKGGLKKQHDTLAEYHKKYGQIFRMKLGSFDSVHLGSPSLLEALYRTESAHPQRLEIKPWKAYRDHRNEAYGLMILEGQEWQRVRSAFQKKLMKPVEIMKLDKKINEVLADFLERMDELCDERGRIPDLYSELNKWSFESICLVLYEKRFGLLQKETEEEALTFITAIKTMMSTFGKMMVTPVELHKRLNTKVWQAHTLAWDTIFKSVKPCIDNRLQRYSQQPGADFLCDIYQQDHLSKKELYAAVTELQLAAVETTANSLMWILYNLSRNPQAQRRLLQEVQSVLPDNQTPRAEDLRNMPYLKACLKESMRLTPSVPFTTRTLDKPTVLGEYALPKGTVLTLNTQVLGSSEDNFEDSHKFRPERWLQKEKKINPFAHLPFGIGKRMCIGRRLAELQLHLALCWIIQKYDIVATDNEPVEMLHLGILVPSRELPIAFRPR
Description: An incubation time of 1 min was chosen to obtain the initial rate based on the time courses (Fig. 6) and previous studies[28],[29].
To test metabolism of each analog, they were incorporated into phospholipid vesicles made from dioleoyl phosphatidylcholine and cardiolipin by sonication, as before[24],[28]. […] Samples from incubations with CYP24A1 were extracted with dichloromethane and analysed by HPLC using a 25 cm Grace Alltima C18 column, as before[27],[28]. […] For the more polar 33, the acetonitrile gradient was 30% to 100% acetonitrile for 30 min then 100% acetonitrile for 20 min, at 0.5 mL/min.

Km, fold higher than for 4 (rat CYP24A1; rat CYP24A1)	catalytic efficiency, fold lower than for 13 (rat CYP24A1; rat CYP24A1) [fold]	Km (rat CYP24A1) [mmol/mol PL]	Km, fold lower than that for 20S(OH)D3 (rat CYP24A1; rat CYP24A1)	kcat/Km, higher than for the next best analog, 4 (rat CYP24A1; rat CYP24A1) [%]	SMILES	fold induction at 0.1 µM (CYP24A1 gene expression)
over 17 fold	13	34.8 ± 9.4			C=C1CC[C@H](O)C/C1=C/C=C1\CCC[C@@]2(C)[C@H]1CC[C@@H]2[C@@](C)(O)CCCC(C)C [20S(OH)D3, 20S-hydroxyvitamin D3]	4.4
		7.9 ± 1.5	3–4 fold	72	C=C1CC[C@H](O)C/C1=C/C=C1\CCC[C@@]2(C)[C@H]1CC[C@@H]2[C@@](C)(O)CCOC(C)C [compound 13]	0.8
